Experimental data published in PMC5028780, “Receptor and transporter binding and activity profiles of albiflorin extracted from Radix paeoniae Alba” (Scientific Reports, 2016).
Values joined by “and” are separate entries in the source; they are usually repeats but may differ in a detail not shown here. Equal entries are not always repeated.

Assays:
[1] = target: T1, rat NET (Rattus norvegicus, UniProt Q63380); assay: Rat monoamine transporter binding assay, NET
T1 construct: from tissue; host or cells: Sprague-Dawley rat hypothalamus membranes
Method: Male Sprague–Dawley rats were killed by cervical dislocation, and their brains were rapidly removed and then dissected on ice. The cerebral cortex, hypothalamus and striatum were homogenised in 4 mL of assay buffer (50 mM Tris–HCl buffer, pH 7.4.) and centrifuged at 40,000× g for 10 min at 4 °C. The pellets were centrifuged twice at 20,000× g and then resuspended in 4 mL of assay buffer. […] Bio-Rad protein assay reagents (1:5 ratio) were used to analyse the protein concentration of the synaptosomal suspension.
(§1) All data for inhibition curves were analysed by nonlinear regression using Prism software (GraphPad Software Inc., San Diego, CA) to determine IC50 values. For the microdialysis experiments, two-way repeated-measures ANOVA followed by Tukey’s test was used to compare the percentage increase over baseline between groups, time and treatment as independent factors, and time as the repeated factor.

[2] = target: 5-HT5A (Homo sapiens, UniProt P47898); assay: CNS receptor binding, 5-HT5A; settings: HEK293 cell line, [3H]-LSD(1)
Method: (§2) Albiflorin (10 μM) was tested for numerous other potential binding targets by using standard receptor binding procedures. The tested targets included the following receptors: D1, D2, D3, D4, D5, 5-HT1A, 5-HT1B, 5-HT1D, 5-HT2a, 5-HT2C, 5-HT3, 5-HT5A, 5-HT6, 5-HT7, α1A, α1B, α2A, β1, M1, M2, M3, M4, M5, μ, κ, δ, A1, A2A, H1, H2, H3, H4.

[3] = target: M3 (Homo sapiens, UniProt P20309); assay: CNS receptor binding, muscarinic M3; settings: CHO cell line, [3H]-NMS(1)
Method: as §2

[4] = target: 5-HT6 (Homo sapiens, UniProt P50406); assay: CNS receptor binding, 5-HT6; settings: HEK293 cell line, [3H]-LSD(1)
Method: as §2

[5] = target: NET (Rattus norvegicus, UniProt Q63380); format: biochemical; settings: Frontal cortex synaptosome, read-out: IC50 values, uptake of [3H]-NE (NET)
Method: (§3) Male Sprague–Dawley rats were killed by asphyxiation with carbon dioxide and cervical dislocation followed by decapitation. The brains were removed quickly and the cerebral cortex, hypothalamus and striatum were dissected on ice. All dissected tissues were homogenised using a Teflon-glass tissue homogeniser in 4 mL of ice-cold sucrose (0.32 M). The homogenised tissue was centrifuged at 2,000× g for 10 min at 4 °C. […] Bio-Rad protein assay reagents (1:5 ratio) were used to analyse the protein concentration of the synaptosomal suspension. Uptake of 5-HT, NE and DA was determined as described previously. The compounds to be tested were dissolved in DMSO, further diluted with assay buffer, and tested over a 10-log unit concentration range in duplicate. Samples of 30–50 μg of synaptosomes (per sample in a total volume of 200 μL) were preincubated at 37 °C in a shaking water bath for 10 min. Vehicle or modifiers were then added for 10–20 min. Uptake was initiated by adding [^3H]-5-HT (20 nM), [^3H]-NE (20 nM), or [^3H]-DA (50 nM). After a 10-min incubation at 37 °C, uptake was terminated by filtration through (polyethyleneimine-coated) GF/B Whatman filters using a Brandel Cell Harvester (Brandel, Gaithersburg, MD).
(§4) All data for inhibition curves were analysed by nonlinear regression using Prism software (GraphPad Software Inc., San Diego, CA) to determine IC50 values. […]

[6] = target: T2, DAT (Rattus norvegicus, UniProt P23977); format: biochemical; settings: Striatum synaptosome, read-out: IC50 values, uptake of [3H]-DA (DAT)
T2 construct: rat brain synaptosomes were prepared and treated with various concentrations of albiflorin; from tissue; host or cells: Sprague-Dawley rat striatal synaptosomes
Method: as §3, §4

[7] = test system: duration of immobility; parameters: method as in PMID 26719283; settings: mice; short- and long-term administration; cited from earlier work
[8] = target: T3, hSERT (Homo sapiens, UniProt P31645); format: cell-based; settings: HEK293 cell line, read-out: IC50 values, uptake of [3H]-5-HT (SERT)
T3 construct: expressed in transfected cells
Method: (§5) The uptake of 5-HT, NE and DA into HEK293 cells stably expressing human transporters was determined using methods previously described with slight modifications. Briefly, the culture medium was removed from cells, and the cells were washed once with phosphate-buffered saline. Krebs-Ringers-HEPES (KRH) assay buffer (100 μL/well, containing 120 mM NaCl, 4.7 mM KCl, 2.2 mM CaCl2, 1.2 mM MgSO4, 1.2 mM […], 10 mM HEPES, pH 7.4) was then added. Various concentrations of drugs were administered to cells in a 24-well plate. The uptake was initiated by the addition of [^3H]-5-HT (50 nM), [^3H]-NE (80 nM), or [^3H]-DA (50 nM). Uptake was terminated by five washes using cold KRH assay buffer after 10-min incubation at 37 °C. The cells were solubilised using 400 μL of scintillation fluid and counted using a Packard Top Count scintillation counter.
as §1

[9] = target: T4, hDAT (Homo sapiens, UniProt Q01959); format: cell-based; settings: HEK293 cell line, read-out: IC50 values, uptake of [3H]-DA (DAT)
T4 construct: expressed in transfected cells
Method: as §5, §1

[10] = target: μ (Homo sapiens, UniProt P35372); assay: CNS receptor binding, opioid μ; settings: CHO cell line, [3H]-dipnorphine(1)
Method: as §2

[11] = target: T5, hNET (Homo sapiens, UniProt P23975); assay: [3H]-NE uptake in transporter-transfected HEK293 cells; format: cell-based; settings: HEK293 cell line, read-out: IC50 values, uptake of [3H]-NE (NET)
T5 construct: expressed in transfected cells
Method: as §5, §1

[12] = target: M1 (Homo sapiens, UniProt P11229); assay: CNS receptor binding, muscarinic M1; settings: CHO cell line, [3H]-NMS(1)
Method: as §2

[13] = read-out: IC50 values for albiflorin

T1 sequence (Q63380 1-617): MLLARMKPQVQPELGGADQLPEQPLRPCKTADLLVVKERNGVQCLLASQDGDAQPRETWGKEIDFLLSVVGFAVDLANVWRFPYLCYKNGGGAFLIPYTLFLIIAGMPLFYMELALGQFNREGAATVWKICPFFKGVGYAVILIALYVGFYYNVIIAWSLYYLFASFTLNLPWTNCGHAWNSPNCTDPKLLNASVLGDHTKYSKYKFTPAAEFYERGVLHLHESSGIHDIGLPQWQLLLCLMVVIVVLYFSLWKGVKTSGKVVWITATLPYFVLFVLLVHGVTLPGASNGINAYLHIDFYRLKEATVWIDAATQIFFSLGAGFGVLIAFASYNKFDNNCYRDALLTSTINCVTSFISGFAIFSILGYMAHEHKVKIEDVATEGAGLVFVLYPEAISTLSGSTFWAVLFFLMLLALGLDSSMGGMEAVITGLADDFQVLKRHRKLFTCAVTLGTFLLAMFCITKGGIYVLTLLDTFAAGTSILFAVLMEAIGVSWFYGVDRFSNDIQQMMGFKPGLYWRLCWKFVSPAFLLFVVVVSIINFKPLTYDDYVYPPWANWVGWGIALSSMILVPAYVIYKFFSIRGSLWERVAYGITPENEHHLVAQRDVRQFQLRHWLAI
Chain of μ (P35372 whole entry): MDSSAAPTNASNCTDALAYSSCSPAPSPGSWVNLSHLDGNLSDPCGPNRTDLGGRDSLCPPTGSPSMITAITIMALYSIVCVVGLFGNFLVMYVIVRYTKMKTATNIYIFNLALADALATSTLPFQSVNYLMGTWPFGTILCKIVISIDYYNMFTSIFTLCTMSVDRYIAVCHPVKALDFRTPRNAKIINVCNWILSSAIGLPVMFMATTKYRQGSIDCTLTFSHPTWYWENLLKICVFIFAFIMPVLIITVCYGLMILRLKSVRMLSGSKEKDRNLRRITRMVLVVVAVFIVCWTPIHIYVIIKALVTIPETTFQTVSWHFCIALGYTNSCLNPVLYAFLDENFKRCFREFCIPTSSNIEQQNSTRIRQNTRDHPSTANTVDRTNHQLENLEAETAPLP
Chain of M1 (P11229 whole entry): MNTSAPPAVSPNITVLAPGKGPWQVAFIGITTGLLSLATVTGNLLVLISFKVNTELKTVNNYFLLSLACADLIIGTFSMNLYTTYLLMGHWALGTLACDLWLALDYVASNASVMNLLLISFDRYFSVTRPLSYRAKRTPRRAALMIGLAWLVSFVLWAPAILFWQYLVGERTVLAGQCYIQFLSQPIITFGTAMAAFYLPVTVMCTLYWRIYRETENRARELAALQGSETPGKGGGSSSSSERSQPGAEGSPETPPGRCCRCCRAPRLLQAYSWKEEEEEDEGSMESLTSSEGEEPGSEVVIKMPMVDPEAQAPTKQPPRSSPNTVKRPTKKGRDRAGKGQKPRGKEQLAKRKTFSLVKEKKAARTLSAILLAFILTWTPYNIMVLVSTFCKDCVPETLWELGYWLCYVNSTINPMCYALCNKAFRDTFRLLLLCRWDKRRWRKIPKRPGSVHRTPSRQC
Chain of M3 (P20309 whole entry): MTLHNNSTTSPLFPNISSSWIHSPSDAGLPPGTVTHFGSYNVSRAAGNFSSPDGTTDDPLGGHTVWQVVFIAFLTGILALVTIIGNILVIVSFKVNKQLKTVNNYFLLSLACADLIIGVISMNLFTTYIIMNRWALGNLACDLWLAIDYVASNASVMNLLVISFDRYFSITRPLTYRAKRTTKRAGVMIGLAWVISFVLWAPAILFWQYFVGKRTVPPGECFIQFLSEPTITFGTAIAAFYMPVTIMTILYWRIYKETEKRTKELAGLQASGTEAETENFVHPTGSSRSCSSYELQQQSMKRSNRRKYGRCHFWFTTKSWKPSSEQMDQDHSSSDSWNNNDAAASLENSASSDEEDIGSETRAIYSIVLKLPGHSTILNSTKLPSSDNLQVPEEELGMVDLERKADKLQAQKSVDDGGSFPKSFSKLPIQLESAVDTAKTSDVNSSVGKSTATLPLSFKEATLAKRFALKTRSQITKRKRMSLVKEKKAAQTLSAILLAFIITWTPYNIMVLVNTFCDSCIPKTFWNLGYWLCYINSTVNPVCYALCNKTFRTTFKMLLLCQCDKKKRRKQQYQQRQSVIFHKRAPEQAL
Chain of 5-HT5A (P47898 whole entry): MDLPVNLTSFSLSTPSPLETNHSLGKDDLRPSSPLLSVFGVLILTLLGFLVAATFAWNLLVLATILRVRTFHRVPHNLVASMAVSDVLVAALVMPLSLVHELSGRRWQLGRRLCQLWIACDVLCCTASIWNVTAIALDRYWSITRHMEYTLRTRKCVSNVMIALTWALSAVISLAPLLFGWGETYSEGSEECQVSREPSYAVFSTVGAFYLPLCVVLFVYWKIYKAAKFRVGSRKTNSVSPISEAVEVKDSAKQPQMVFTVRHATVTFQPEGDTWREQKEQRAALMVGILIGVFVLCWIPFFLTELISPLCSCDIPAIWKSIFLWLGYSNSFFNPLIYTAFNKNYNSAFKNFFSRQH
Chain of 5-HT6 (P50406 whole entry): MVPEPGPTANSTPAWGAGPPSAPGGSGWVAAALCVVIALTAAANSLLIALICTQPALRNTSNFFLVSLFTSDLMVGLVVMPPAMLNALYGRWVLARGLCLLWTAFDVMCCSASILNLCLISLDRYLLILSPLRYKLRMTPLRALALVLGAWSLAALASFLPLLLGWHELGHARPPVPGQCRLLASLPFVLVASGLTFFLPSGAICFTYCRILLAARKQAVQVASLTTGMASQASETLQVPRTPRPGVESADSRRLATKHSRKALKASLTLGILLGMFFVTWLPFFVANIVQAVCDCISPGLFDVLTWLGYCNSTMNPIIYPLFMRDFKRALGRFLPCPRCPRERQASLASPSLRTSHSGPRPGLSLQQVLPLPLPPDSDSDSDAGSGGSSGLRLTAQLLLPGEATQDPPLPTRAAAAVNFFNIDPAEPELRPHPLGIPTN
T4 sequence (Q01959 whole entry): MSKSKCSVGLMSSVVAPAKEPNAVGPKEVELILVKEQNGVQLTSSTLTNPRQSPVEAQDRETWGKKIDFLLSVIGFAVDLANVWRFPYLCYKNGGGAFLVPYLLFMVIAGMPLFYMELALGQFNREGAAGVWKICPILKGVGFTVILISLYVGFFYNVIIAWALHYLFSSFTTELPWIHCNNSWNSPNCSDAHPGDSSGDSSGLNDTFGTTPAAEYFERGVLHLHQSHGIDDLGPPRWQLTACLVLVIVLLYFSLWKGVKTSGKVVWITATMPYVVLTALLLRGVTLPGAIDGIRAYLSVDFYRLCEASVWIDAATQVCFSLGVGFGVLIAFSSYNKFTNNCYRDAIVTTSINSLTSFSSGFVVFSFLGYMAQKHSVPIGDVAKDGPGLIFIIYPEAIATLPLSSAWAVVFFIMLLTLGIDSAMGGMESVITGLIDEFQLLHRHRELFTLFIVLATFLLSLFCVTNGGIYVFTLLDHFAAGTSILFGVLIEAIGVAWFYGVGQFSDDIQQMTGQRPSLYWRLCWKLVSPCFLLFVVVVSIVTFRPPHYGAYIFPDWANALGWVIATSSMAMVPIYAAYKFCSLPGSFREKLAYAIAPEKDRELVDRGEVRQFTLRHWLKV
T5 sequence (P23975 whole entry): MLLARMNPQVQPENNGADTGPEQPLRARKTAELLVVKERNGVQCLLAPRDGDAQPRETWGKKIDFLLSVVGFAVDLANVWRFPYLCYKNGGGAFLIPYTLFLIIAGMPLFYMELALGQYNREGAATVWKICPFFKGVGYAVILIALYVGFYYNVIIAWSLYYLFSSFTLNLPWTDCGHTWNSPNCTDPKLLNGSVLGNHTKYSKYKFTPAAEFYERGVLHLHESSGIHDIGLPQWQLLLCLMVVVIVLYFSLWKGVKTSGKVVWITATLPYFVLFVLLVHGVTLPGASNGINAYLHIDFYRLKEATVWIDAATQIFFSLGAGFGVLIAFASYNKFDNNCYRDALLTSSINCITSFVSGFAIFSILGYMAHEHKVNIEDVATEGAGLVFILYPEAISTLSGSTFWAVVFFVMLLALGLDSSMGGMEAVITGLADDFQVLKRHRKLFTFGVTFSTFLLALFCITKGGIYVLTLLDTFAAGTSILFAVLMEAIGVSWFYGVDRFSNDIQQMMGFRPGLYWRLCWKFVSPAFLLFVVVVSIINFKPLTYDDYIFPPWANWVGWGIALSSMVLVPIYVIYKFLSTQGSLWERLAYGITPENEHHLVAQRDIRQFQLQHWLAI
Chain of NET (Q63380 1-617): as the sequence (Q63380 1-617) above
T3 sequence (P31645 whole entry): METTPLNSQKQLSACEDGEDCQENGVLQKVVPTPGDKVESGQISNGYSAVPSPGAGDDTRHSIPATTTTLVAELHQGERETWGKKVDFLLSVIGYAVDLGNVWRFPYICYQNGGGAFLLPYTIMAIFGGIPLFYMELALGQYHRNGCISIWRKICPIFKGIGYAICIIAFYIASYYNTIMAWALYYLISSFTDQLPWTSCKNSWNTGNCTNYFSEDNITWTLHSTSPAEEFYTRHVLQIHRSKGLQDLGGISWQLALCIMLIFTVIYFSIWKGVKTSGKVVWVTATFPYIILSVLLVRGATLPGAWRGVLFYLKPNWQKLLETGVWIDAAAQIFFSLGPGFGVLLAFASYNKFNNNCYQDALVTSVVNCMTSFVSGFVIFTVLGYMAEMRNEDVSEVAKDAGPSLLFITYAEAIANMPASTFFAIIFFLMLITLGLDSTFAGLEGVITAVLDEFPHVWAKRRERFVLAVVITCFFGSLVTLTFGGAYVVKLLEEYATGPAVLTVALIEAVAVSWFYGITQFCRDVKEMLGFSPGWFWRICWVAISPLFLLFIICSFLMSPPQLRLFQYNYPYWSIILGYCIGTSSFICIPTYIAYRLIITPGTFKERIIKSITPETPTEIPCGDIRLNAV

For `C[C@]12C[C@@H](O)[C@@H]3C[C@@]1(O[C@@H]1O[C@H](CO)[C@@H](O)[C@H](O)[C@H]1O)[C@@]3(COC(=O)c1ccccc1)C(=O)O2` [albiflorin, Albiflorin], the Ki ([1]; Rat, [3H]-nisoxetine, Hypothalamus) was 1.25 ± 0.77 nM, the “potency/affinity relative to desipramine at the rat NET” value ([1]; albiflorin vs desipramine) was 4 fold and 6 fold and the “% Inhibition of binding at 10 μM albiflorin” value (“% Inhibition of binding” below) [2] was 20.11%. For the same compound, the IC50 [2, 13] was > 10000 nM, the “% Inhibition of binding” value [3] was 25.66% and the IC50 [3, 13] was > 10000 nM. For the same compound, the “% Inhibition of binding” value [4] was 22.36%, the IC50 [4, 13] was > 10000 nM and the IC50 [5] was 0.98 ± 0.24 nM. The IC50 [6] was 3690 ± 114 nM, the “antidepressant-like effect, forced-swim test” value [7] was “decreases in the duration of immobility” and the IC50 [8] was 2.36 ± 0.74 nM. For the same compound, the IC50 [9] was 2240 ± 25 nM, the “% Inhibition of binding” value [10] was 23.66% and the IC50 [10, 13] was > 10000 nM. The IC50 [11] was 0.36 ± 0.08 nM, the “% Inhibition of binding” value [12] was 21.28% and the IC50 [12, 13] was > 10000 nM.
